Literature values, collected in patent US20260125680A1, “COMPOSITIONS AND METHODS FOR IMMUNE CHECKPOINT INHIBITION” (The General Hospital Corporation, priority 2018, published 2026).

Assays:
bladder cancer = details: confirmatory trial
pancreatic cancer = details: monotherapy

Row | Substance | primary endpoint of overall survival (bladder cancer) | response (pancreatic cancer)
1 | atezolizumab: FDA approved PD-L1 inhibitor | failed to achieve its primary endpoint | 
2 | Ipilimumab: anti-CTLA-4 |  | ineffective with no responders
